melting point [°C]	Compound
124 to 125	CC(C)(C)C(=O)Nc1ncnc2c1nc(-n1cccn1)n2Cc1ccccc1 [Compound No. 1, N-(9-Benzyl-8-pyrazol-1-yl-9H-purin-6-yl)-2,2-dimethylpropionamide]
189.5 to 199	C=CCNC(=O)Nc1ncnc2c1nc(-n1cccn1)n2Cc1ccccc1 [Compound No. 12, 1-Allyl-3-(9-benzyl-8-pyrazol-1-yl-9H-purin-6-yl)-urea]

— patent US20080280926A1, “Phosphodiesterase Inhibitors” (priority 2003, published 2008)
